The assay relates to M. tuberculosis H37Rv growth inhibition. As to the kind of experiment: M. tuberculosis H37Rv growth inhibitors, H37Rv strain (AID 1626). Conditions: for IC90: measured here: IC90 against H37Rv; for CC50: measured here: Vero cell cytotoxicity.

The structures appear in SMILES notation. pIC50: −log10 of the molar value. Bounds are passed on as bounds.

For the compound `CCOC(=O)c1ccc(NC(=O)CSc2nnc(COc3ccccc3OC)n2C)cc1`, the IC90 (usually the concentration at which the effect reaches the 90% level) was more than 100 µM.
For `O=C(CNC(=O)c1ccc(-c2ccccc2)cc1)OCc1c(F)cccc1Cl`, the pIC50 (as a rule, the IC50 on a negative log10 scale, so that one unit is a factor of ten) was 5.13 and the IC90 is more than 100 µM.
The corresponding values for `O=C(NCc1ccco1)c1cc([N+](=O)[O-])cc([N+](=O)[O-])c1` are 5.84 and 1.65 µM.
The corresponding values for `Cc1ccc(-c2ccc(SCC(=O)Nc3nonc3C)nn2)cc1` are 5.75 and 3.88 µM.
Turning to `Cc1ccc(C(=O)Oc2cccc(NC(=O)c3ccccc3)c2)cc1C`, the pIC50 is 5.11 and the IC90 amounted to 12.9 µM.
With `CCn1c(CNc2ccc(F)cc2)nnc1SCC(=O)OC1CCCCC1`, the pIC50 is 4.92 and the IC90 amounted to 13.7 µM.
In the case of `O=C(O)C1CCCCC1C(=O)Nc1ccccc1Nc1ccccc1` (configuration not stated), the IC90 was more than 100 µM.
`COC(=O)[C@H](NC(=O)c1cc(-c2ccccc2)nc2ccccc12)c1ccccc1`: the negative logarithm of the IC50 (pIC50) is 5.77 and the IC90 turned out to be 3.37 µM.
For `COC(=O)CSc1nc(N)c2c3c(sc2n1)CCCC3`, the pIC50 is 5.60 and the IC90 amounted to 4.12 µM.
`CCCn1c(NC(=O)c2ccccc2)nc2ccccc21`: the pIC50 was 5.41, the IC90 is more than 100 µM and the CC50 (commonly the concentration at which the toxic effect on the cells reaches its halfway point) is more than 40 µM.
Consider `CCOC(=O)CNC(=O)CSc1ncnc2c1nnn2-c1ccc(F)cc1`, for which the 90% effect concentration (IC90) is more than 100 µM.
With `CCOC(=O)c1ccc(-n2c(CCC(=O)O)ccc2-c2cccs2)cc1`, the IC90 is more than 100 µM.
For `CCc1ccc(NC(=O)CSc2nnc(-c3ccccn3)n2C)cc1`, the IC90 is more than 100 µM.
Turning to `CCS(=O)(=O)Nc1cccc(-c2cc(-c3ccccc3)c3cc(C)ccc3n2)c1`, the pIC50 was 5.22, the IC90 stood at 11.1 µM and the CC50 was more than 40 µM.
Turning to `COc1ccc(O)c(C(=O)CC(=O)c2ccccc2C)c1`, the negative logarithm of the IC50 (pIC50) is 4.76, the IC90 is more than 100 µM and the CC50 worked out at 17.1 µM.
As for `Cc1nc(SCc2cccc(F)c2)c2oc3ccccc3c2n1`, the pIC50 was 6.23 and the IC90 came to 18 µM.
`CCCCOc1ccc(NC(=O)CSc2nnnn2C)cc1`: the pIC50 was 4.47 and the IC90 is more than 100 µM.
In the case of `COc1cc(OC)c2c(-c3ccccc3)cc(=O)oc2c1C(CCN1CCCC(C)C1)c1ccc(N(C)C)cc1` (configuration not stated), the pIC50 was 5.38, the IC90 was 5.41 µM and the CC50 worked out at 17.1 µM.
As to `CCOc1ccc(-c2nnc(NC(=O)c3ccc(OCC(C)C)c(OC)c3)o2)cc1`, the pIC50 is 5.00, the IC90 is more than 100 µM and the CC50 amounted to 25.3 µM.
As for `COc1cc(-c2nc3ccc4ccccc4c3c3c2CCC3)cc(OC)c1O`, the pIC50 is 4.88, the IC90 is 18.8 µM and the CC50 was more than 40 µM.
For the compound `COc1ccc(OCCn2c(NC(=O)c3ccco3)nc3ccccc32)cc1`, the IC90 is more than 100 µM and the CC50 is 33.2 µM.
On to `CN(C(=O)c1ccco1)c1nc2c(s1)CCCC2`, for which the CC50 was more than 40 µM.
In the case of `CCOC(=O)C1CCCc2c1[nH]c1c(C(N)=O)cccc21` (configuration not stated), the pIC50 was 5.47 and the IC90 worked out at 29.1 µM.
Take `c1ccc(CN2CCN(c3nc(-c4ccccc4)nc(-n4ccnc4)n3)CC2)cc1`: the pIC50 was 5.82, the IC90 worked out at 2.2 µM and the CC50 is more than 40 µM.
For the compound `N#C/C(=C/c1cn(-c2ccccc2)nc1-c1cccc(OCc2ccc(F)cc2)c1)C(=O)NCCCn1ccnc1`, the pIC50 is 5.38, the IC90 turned out to be 6.45 µM and the CC50 came to 22.5 µM.
For the compound `CNC1=C(N(C(C)=O)c2ccc(Br)cc2)C(=O)c2ccccc2C1=O`, the pIC50 is 6.18, the IC90 worked out at 2.54 µM and the CC50 is 10 µM.
Consider `Cc1nn2c(NCCCN(C)C)c3c(nc2c1-c1ccccc1)CCC3`, for which the pIC50 is 4.34, the IC90 was found to be 50.1 µM and the CC50 was 23.2 µM.
With `Cc1cccc(CN2CCCC(C(=O)c3cccc(OC(C)C)c3)C2)n1` (configuration not stated), the pIC50 was 4.91, the IC90 is more than 100 µM and the CC50 was more than 40 µM.
`O=C(/C=C/c1ccc(Cl)cc1Cl)N1CCN(c2ccc([N+](=O)[O-])c(N3CCOCC3)c2)CC1` came in with a CC50 of more than 40 µM.
For `CCCc1cc(NCc2ccccn2)n2nc(C)c(-c3ccccc3)c2n1`, the pIC50 was 5.36, the IC90 was 7.09 µM and the CC50 was more than 40 µM.
With `CCCCNC(=O)c1cc2n(n1)C(C(F)(F)F)CC(c1ccccc1)N2` (configuration not stated), the pIC50 was 6.44 and the 90% effect concentration (IC90) came out at 4.14 µM.
As to `CC1=Nc2ccccc2/C1=C\c1nc(-c2ccc(C(F)(F)F)cc2)oc1O`, the pIC50 is 5.77, the IC90 is more than 100 µM and the CC50 was more than 40 µM.
As for `CN1CCN(CCCNC(=O)c2ccc(/C=C3\Sc4ccccc4N(Cc4ccc(F)cc4)C3=O)cc2)CC1`, the pIC50 is 5.20, the IC90 worked out at 11.3 µM and the CC50 was found to be 12.5 µM.
With `COC(=O)CCSc1cc(NCCOC(C)=O)c([N+](=O)[O-])c2nonc12`, the pIC50 is 4.79 and the IC90 stood at 40.3 µM.
`Cc1cccc(OCC(O)Cn2c(=N)n(CCN3CCCCC3)c3ccccc32)c1` (configuration not stated): the pIC50 is 5.23, the IC90 is 6.69 µM and the CC50 was found to be 35.8 µM.
On to `COc1cc(CNCCc2ccccc2)cc(Cl)c1OCc1ccccc1`, for which the pIC50 is 5.06, the IC90 was found to be 11 µM and the CC50 is 27.8 µM.
In the case of `Cc1cc(Cl)n2c(nc3cc(F)c(F)cc32)c1C#N`, the negative-log IC50 (pIC50) is 5.40, the IC90 amounted to 10.5 µM and the CC50 stood at 2.29 µM.
With `CCOC(=O)CSc1ncnc2c1cnn2-c1ccc(Cl)cc1`, the pIC50 is 5.99 and the IC90 was more than 100 µM.
In turn, `CC(=O)Nc1cccc(OCc2ccc(F)cc2)c1` had an IC90 of more than 100 µM and a CC50 of more than 40 µM.
With `CN1CCN(c2ccccc2NC(=O)c2cc3c(s2)-c2ccccc2OC3)CC1`, the pIC50 is 5.06, the IC90 turned out to be 17.7 µM and the CC50 came to 10.7 µM.
Consider `COc1cc(/C=C/c2ccc3c(Br)cc(Br)c(O)c3n2)ccc1O`, for which the pIC50 was more than 6.71, the IC90 came out at 0.345 µM and the CC50 was 14.5 µM.
Turning to `Cc1nc(NCc2ccc3c(c2)OCO3)c2oc3ccccc3c2n1`, the negative-log IC50 (pIC50) is 5.11 and the IC90 turned out to be 21.8 µM.
In turn, `COc1ccc(N2CCN(C(=O)CN3CCN(c4nc(-c5ccc(F)cc5)cs4)CC3)CC2)cc1` displayed a CC50 of more than 40 µM.
`Cc1ccc(NC(=O)N2CCC(c3nc4c(nnn4Cc4cccc(Cl)c4)c(=O)[nH]3)CC2)cc1`: the pIC50 is 5.29 and the IC90 amounted to 6.62 µM.
For `CCOC(=O)CSc1ncnc2c1cnn2-c1ccccc1`, in that order: 5.86 and 14.6 µM.
As for `COc1ccc(N/C=C2\CCc3ccccc3C2=O)cc1`, the IC90 is more than 100 µM and the CC50 was more than 40 µM.
`O/N=C/c1ccc(-c2cc(Cl)ccc2Cl)o1` displayed an IC90 of more than 100 µM.
Regarding `Cc1cccc(/C=c2\s/c(=C\C(=O)C(C)(C)C)[nH]c2=O)c1`, the pIC50 was 6.33, the IC90 was determined as 11.6 µM and the CC50 was determined as 29 µM.
The compound `COc1ccc(N=Cc2ccc[nH]2)cc1` yielded an IC90 of more than 100 µM.
On to `COc1ccc(Oc2ccc(N/C=C/C(=O)C(C)(C)C)cc2)cc1`, for which the pIC50 is 4.12 and the IC90 was more than 100 µM.
Regarding `CCOC(=O)c1c(NC(=O)COc2ccccc2)sc2c1CC(C)(C)NC2(C)C`, the pIC50 is 4.70, the IC90 is 26.8 µM and the CC50 was more than 40 µM.
Consider `COc1ccc(/C=C2\SC(=N)N(c3nccs3)C2=O)cc1OC`, for which the pIC50 was more than 6.71, the IC90 is more than 100 µM and the CC50 was 17.9 µM.
Regarding `CC(C)(c1ccccc1)c1ccc(OCC(O)CNC2CCN(Cc3ccccc3)CC2)cc1` (configuration not stated), the pIC50 is 5.34, the IC90 came out at 6.06 µM and the CC50 worked out at 6.22 µM.
Turning to `Cc1ccc(NCc2nnc(SCC(=O)OC3CCCCC3)o2)c(C)c1`, the pIC50 is 6.48 and the IC90 was 1.59 µM.
Regarding `O=C1c2cccc3cc([N+](=O)[O-])cc(c23)C(=O)N1CCN1CCCC1`, the pIC50 was 5.34, the IC90 amounted to 5.71 µM and the CC50 was determined as 1.8 µM.
As for `Cc1ccc(-c2nn(-c3ccccc3)cc2NC(=O)CCl)cc1`, the pIC50 was 4.53, the IC90 was more than 100 µM and the CC50 stood at 27.1 µM.
For the compound `CCOc1ccc(N2C(=O)c3ccc(C(=O)OCC(=O)N(CC)C4CCS(=O)(=O)C4)cc3C2=O)cc1` (configuration not stated), the IC90 is more than 100 µM.
Take `CCc1ccc2c(c1)C1(C(=O)N2)N2CCCC2C(C(=O)c2ccc3ccccc3c2)C12C(=O)Nc1ccccc12` (configuration not stated): the pIC50 was 5.53, the IC90 is more than 100 µM and the CC50 worked out at 17.8 µM.
For the compound `COc1ccc2cc(C(=O)C3CCCN(Cc4cccc(C)n4)C3)ccc2c1` (configuration not stated), the pIC50 was 5.16, the IC90 is 14.7 µM and the CC50 is more than 40 µM.
`O=[N+]([O-])c1cc(CN2CCCC2)ccc1Sc1ccc(Cl)cc1`: the pIC50 was 4.53, the IC90 was more than 100 µM and the CC50 is more than 40 µM.
For `COc1cc(/C=C/C(=O)c2ccc(F)cc2)cc(OC)c1OC`, the pIC50 was 5.31, the IC90 turned out to be 7.36 µM and the half-maximal cytotoxic concentration (CC50) is 21.1 µM.
On to `COc1ccccc1/C=C/C(=O)Oc1cccc2cccnc12`, for which the pIC50 is 5.55, the IC90 was found to be 3.05 µM and the CC50 came to 37.9 µM.
For `CCOc1ccc(NC(=O)CCN2CCN(c3ccccc3)CC2)cc1`, the IC90 is more than 100 µM.
With `COc1ccc(C2=CC(c3c(C)nn(-c4ccccc4)c3Cl)n3nnnc3N2)cc1OC` (configuration not stated), the pIC50 is 5.05 and the IC90 stood at 14.1 µM.
With `CC1CCN(c2nc(-c3ccncc3)nc3ccccc23)CC1`, the pIC50 was 5.34, the IC90 is 6.52 µM and the CC50 is more than 40 µM.
With `O=C1C=C(Nc2ccccc2)C(=O)c2ccccc21`, the pIC50 was 4.93, the IC90 is 13.4 µM and the CC50 is more than 40 µM.

The values are drawn from PubChem BioAssay AID1626 (SRMLSC, 2009).
